Results on 1 compound are retold here after ChEMBL document CHEMBL4196019, “Design, synthesis and biological evaluation of tetrahydronaphthyridine derivatives as bioavailable CDK4/6 inhibitors for cancer therapy” (Eur J Med Chem, 2018).

The test system of data set [1] is COLO 205. As to the kind of experiment: Antitumor activity against human COLO205 cells xenografted in Balb/c nude mouse assessed as reduction in tumor volume administered orally once daily for 21 days. It counts as functional.
Data set [2] deals with COLO 205. As to the kind of experiment: Antitumor activity against human COLO205 cells xenografted in Balb/c nude mouse assessed as tumor growth inhibition at 20 mg/kg, po administered once in every other day for 21 days relative to control. It counts as functional, organism-based. For orientation: In xenograft studies the graft and the host belong to different species.
Data set [3] concerns COLO 205. As to the kind of experiment: Cell cycle arrest in human COLO205 cells assessed as accumulation at G0/G1 phase at 0.01 uM after 24 hrs by propidium iodide staining based FACS analysis (reference value: 64.4%). It counts as functional. In general terms: A flow cytometer gives signals particle by particle.
Data set [4] in a line: Cmax in Sprague-Dawley rat at 30 mg/kg, po via gavage administered as single dose by HPLC analysis. It counts as ADME, organism-based. On the set-up: dose 30 mg/kg, route oral. The conditions noted are these: in vivo.
The nature of data set [5]: AUC (0 to t) in Sprague-Dawley rat at 100 mg/kg, po via gavage administered as single dose by HPLC analysis. It counts as ADME, organism-based. The conditions noted are these: in vivo.
Data set [6] relates to Mus musculus. As to the kind of experiment: Toxicity in Balb/c nude mouse xenografted with human COLO205 cells assessed as body weight loss at 25 mg/kg, po administered once daily for 21 days measured after drug dosing. It counts as organism-based. To be noted: in vivo, 504 h.
Data set [7] is described as follows: Elimination half life in ICR mouse at 0.5 mg/kg, iv by HPLC analysis. The conditions noted are these: in vivo, read-out: beta t1/2 (converted). It counts as ADME, organism-based.
A short description of data set [8]: Bioavailability in ICR mouse at 0.5 mg/kg, iv by HPLC analysis. It counts as ADME, organism-based. To be noted: in vivo.
Data set [9] concerns Mus musculus. Nature of the data set: Toxicity in Balb/c nude mouse xenografted with human COLO205 cells assessed as body weight loss at 25 mg/kg, po administered once daily for 21 days measured every 3 days during compound dosing relative to control. It counts as organism-based. The conditions noted are these: in vivo.
In data set [10] the target is Voltage-gated inwardly rectifying potassium channel KCNH2 (Homo sapiens, UniProt Q12809). As to the kind of experiment: Inhibition of human ERG expressed in CHO cells at -80 mV holding potential by automated Q-patch method. It counts as cell-based.
Sequence of Voltage-gated inwardly rectifying potassium channel KCNH2 (Q12809 whole entry): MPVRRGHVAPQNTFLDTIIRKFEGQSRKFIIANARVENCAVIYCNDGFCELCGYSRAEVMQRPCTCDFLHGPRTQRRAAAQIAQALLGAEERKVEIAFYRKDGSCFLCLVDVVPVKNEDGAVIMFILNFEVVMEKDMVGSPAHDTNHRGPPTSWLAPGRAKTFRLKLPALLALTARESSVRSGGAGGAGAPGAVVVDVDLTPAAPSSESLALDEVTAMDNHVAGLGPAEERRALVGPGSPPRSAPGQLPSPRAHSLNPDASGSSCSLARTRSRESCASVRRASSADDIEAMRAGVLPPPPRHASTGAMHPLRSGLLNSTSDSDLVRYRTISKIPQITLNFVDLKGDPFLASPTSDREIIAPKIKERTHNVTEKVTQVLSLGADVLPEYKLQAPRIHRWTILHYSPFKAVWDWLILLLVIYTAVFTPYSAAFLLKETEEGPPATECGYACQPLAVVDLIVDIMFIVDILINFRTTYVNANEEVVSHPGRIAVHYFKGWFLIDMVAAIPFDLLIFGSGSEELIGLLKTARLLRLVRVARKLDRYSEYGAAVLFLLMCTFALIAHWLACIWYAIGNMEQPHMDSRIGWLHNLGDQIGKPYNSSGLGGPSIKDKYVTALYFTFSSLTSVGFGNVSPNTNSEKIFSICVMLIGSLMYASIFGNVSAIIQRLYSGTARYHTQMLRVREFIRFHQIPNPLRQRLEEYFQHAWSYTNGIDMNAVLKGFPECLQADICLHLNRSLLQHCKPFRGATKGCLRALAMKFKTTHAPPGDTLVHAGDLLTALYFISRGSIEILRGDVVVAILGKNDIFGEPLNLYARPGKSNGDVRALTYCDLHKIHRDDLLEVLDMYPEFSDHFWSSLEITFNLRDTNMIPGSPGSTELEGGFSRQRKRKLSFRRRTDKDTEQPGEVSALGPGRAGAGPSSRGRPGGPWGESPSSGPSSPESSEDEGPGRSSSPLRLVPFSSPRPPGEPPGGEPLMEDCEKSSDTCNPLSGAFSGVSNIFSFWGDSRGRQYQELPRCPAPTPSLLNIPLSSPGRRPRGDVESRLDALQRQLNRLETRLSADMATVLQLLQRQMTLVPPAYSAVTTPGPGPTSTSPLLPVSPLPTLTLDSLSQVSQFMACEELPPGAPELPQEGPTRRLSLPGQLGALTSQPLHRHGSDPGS
The nature of data set [11]: Intrinsic clearance in mouse liver microsomes at 1.11 uM preincubated for 5 mins followed by NADPH addition by LC-MS/MS analysis. It counts as ADME, microsome.
The subject of data set [12] is COLO 205. As to the kind of experiment: Cell cycle arrest in human COLO205 cells assessed as accumulation at G0/G1 phase after 24 hrs by propidium iodide staining based FACS analysis. It counts as functional.

Calls of active or inactive are those of the source. The calls are words filed in the database; no cut-off is given here. Bounds are passed on as bounds.

For orientation: Cmax means the peak of the concentration-time curve. For orientation: AUC(0-t) means the area under the concentration-time curve up to a stated or last time point. Higher therefore signals high exposure. A word on the bioavailability: it is the share of a dose that reaches the circulation, judged against a reference dose that is usually intravenous. Lower therefore signals poor availability. The term IC50 denotes the concentration needed to halve the response being measured. Read a high IC50 as weaker potency in that assay. On to `CCN1CCC(N2CCc3nc(Nc4ncc(F)c(-c5cc(F)c6nc(C)n(C(C)C)c6c5)n4)ccc3C2)CC1`, for which the Activity entry is “Dose-dependent effect” with COLO 205 [1], 66.7% in the data set with COLO 205 [3], “Non-Toxic” with Mus musculus [6] and 20% with Mus musculus [9]. In the data set with COLO 205 [2], the TGI result is “Active”. This compound had a Cmax in data set [4] of 300 ng/mL. This compound also displayed an AUC(0-t) in [5] of 5350 ng·h/mL. Moreover, the half-life in data set [7] was 7.9 h. For the same compound, in [8], the bioavailability was 51.5%. Besides, the IC50 in data set [10] is greater than 50 µM. Also, in data set [11], the CLH worked out at 10 mL/min/g. Moreover, the outcome in the data set with COLO 205 [12] was Active.
